# Reference: ChEMBL document CHEMBL1201862, “PubChem BioAssay data set” (2004)
#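 How tested: cells in 96-well plates exposed to compound for 48 hours at five concentrations. GI50: concentration for 50% inhibition of growth.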 Calls of active or inactive are those of the source. Rule as the data show it: active = GI50 up to about 1.1 µM and inactive = higher.
# Assays:
# Assay in all cases: NCI tumour cell line growth inhibition, 48 h
# HL-60 = system: HL-60
# HOP-62 = system: HOP-62
# IGROV-1 = system: IGROV-1
# K562 = system: K562
# MOLT-4 = system: MOLT-4
# NCI-H522 = system: NCI-H522
# OVCAR-3 = system: OVCAR-3
# OVCAR-5 = system: OVCAR-5
# RPMI-8226 = system: RPMI-8226
# SF-295 = system: SF-295
# SF-539 = system: SF-539
# SK-MEL-5 = system: SK-MEL-5
# SK-OV-3 = system: SK-OV-3
# SNB-75 = system: SNB-75
# SR = system: SR
# TK-10 = system: TK-10
# UACC-62 = system: UACC-62
# MDA-MB-435 = system: MDA-MB-435
# PC-3 = system: PC-3
# SK-MEL-2 = system: SK-MEL-2
SMILES,GI50 (HL-60),GI50 (HOP-62),GI50 (IGROV-1),GI50 (K562),GI50 (MOLT-4),GI50 (NCI-H522),GI50 (OVCAR-3),GI50 (OVCAR-5),GI50 (RPMI-8226),GI50 (SF-295),GI50 (SF-539),GI50 (SK-MEL-5),GI50 (SK-OV-3),GI50 (SNB-75),GI50 (SR),GI50 (TK-10),GI50 (UACC-62),GI50 (MDA-MB-435),GI50 (PC-3),GI50 (SK-MEL-2)
Cc1oc2c(C)c3oc(=O)cc(C)c3cc2c1CN1C(=O)C2OCCOCCOCCOCCOCCO[C@H]2C1=O (stereo not given in full),> 100 µM (inactive),> 100 µM (inactive),> 100 µM (inactive),> 100 µM (inactive),> 100 µM (inactive),> 100 µM (inactive),> 100 µM (inactive),> 100 µM (inactive),> 100 µM (inactive),> 100 µM (inactive),> 100 µM (inactive),> 100 µM (inactive),> 100 µM (inactive),> 100 µM (inactive),> 100 µM (inactive),> 100 µM (inactive),> 100 µM (inactive),,,
CCNc1cc2oc(=O)cc(C(F)(F)F)c2cc1C,,> 100 µM (inactive),> 100 µM (inactive),> 100 µM (inactive),> 100 µM (inactive),> 100 µM (inactive),> 100 µM (inactive),> 100 µM (inactive),> 100 µM (inactive),> 100 µM (inactive),> 100 µM (inactive),> 100 µM (inactive),> 100 µM (inactive),27 µM (inactive),,> 100 µM (inactive),> 100 µM (inactive),> 100 µM (inactive),> 100 µM (inactive),> 100 µM (inactive)
CCCC(=O)OCC1(CO)C/C(=C/CC(C(C)C)C(C)C)C(=O)O1 (stereo not given),,> 100 µM (inactive),> 100 µM (inactive),,,38.7 µM (inactive),> 100 µM (inactive),> 100 µM (inactive),,> 100 µM (inactive),,54.7 µM (inactive),> 100 µM (inactive),> 100 µM (inactive),,> 100 µM (inactive),> 100 µM (inactive),> 100 µM (inactive),> 100 µM (inactive),> 100 µM (inactive)
CC1=NC2=Nc3nc(C)cc[n+]3CN2C=C1,,89.3 µM (inactive),39.9 µM (inactive),,,> 100 µM (inactive),> 100 µM (inactive),> 100 µM (inactive),19.1 µM (inactive),85.5 µM (inactive),> 100 µM (inactive),53.3 µM (inactive),> 100 µM (inactive),> 100 µM (inactive),,88.3 µM (inactive),44.2 µM (inactive),40 µM (inactive),> 100 µM (inactive),> 100 µM (inactive)
Clc1cc(Cl)cc(C2ON=C(c3ccccc3)N2C23CC4CC(CC(C4)C2)C3)c1 (stereo not given),,> 10 µM (inactive),> 10 µM (inactive),> 10 µM (inactive),> 10 µM (inactive),> 10 µM (inactive),> 10 µM (inactive),> 10 µM (inactive),> 10 µM (inactive),> 10 µM (inactive),> 10 µM (inactive),> 10 µM (inactive),> 10 µM (inactive),> 10 µM (inactive),,> 10 µM (inactive),> 10 µM (inactive),> 10 µM (inactive),> 10 µM (inactive),> 10 µM (inactive)
Cc1cn(C2CC(n3cc(Cn4cc(Br)c(=O)[nH]c4=O)nn3)C(CO)O2)c(=O)[nH]c1=O (stereo not given),0.0395 µM (active),> 100 µM (inactive),80 µM (inactive),,30.7 µM (inactive),,> 100 µM (inactive),> 100 µM (inactive),52.6 µM (inactive),41.9 µM (inactive),> 100 µM (inactive),89.5 µM (inactive),63.2 µM (inactive),60.5 µM (inactive),,> 100 µM (inactive),> 100 µM (inactive),42.1 µM (inactive),> 100 µM (inactive),> 100 µM (inactive)
C[C@H](CCC(=O)O)[C@H]1CC[C@H]2[C@@H]3[C@H](O)[C@H](O)[C@@H]4C[C@H](O)CC[C@]4(C)[C@H]3CC[C@]12C [HYOCHOLIC ACID],> 100 µM (inactive),> 100 µM (inactive),> 100 µM (inactive),> 100 µM (inactive),> 100 µM (inactive),> 100 µM (inactive),,> 100 µM (inactive),> 100 µM (inactive),,> 100 µM (inactive),,,> 100 µM (inactive),,> 100 µM (inactive),> 100 µM (inactive),> 100 µM (inactive),> 100 µM (inactive),> 100 µM (inactive)
CC#N.O[C@@H]1CCCC[C@H]1O.O[C@@H]1CCCC[C@H]1O.[TeH2],14.6 µM (inactive),53.5 µM (inactive),41.6 µM (inactive),25.8 µM (inactive),27.4 µM (inactive),37.2 µM (inactive),19.1 µM (inactive),23.8 µM (inactive),26.7 µM (inactive),18.6 µM (inactive),> 100 µM (inactive),33.3 µM (inactive),> 100 µM (inactive),> 100 µM (inactive),24.8 µM (inactive),> 100 µM (inactive),82.2 µM (inactive),,,> 100 µM (inactive)
O=C(O)CN(CC(=O)O)C1CCCCC1N(CC(=O)O)CC(=O)NCCN=C=S (stereo not given),> 100 µM (inactive),> 100 µM (inactive),> 100 µM (inactive),> 100 µM (inactive),> 100 µM (inactive),> 100 µM (inactive),> 100 µM (inactive),> 100 µM (inactive),> 100 µM (inactive),> 100 µM (inactive),> 100 µM (inactive),> 100 µM (inactive),> 100 µM (inactive),,,> 100 µM (inactive),> 100 µM (inactive),> 100 µM (inactive),> 100 µM (inactive),> 100 µM (inactive)
CCOC(=O)c1c[nH]c(C(=O)C=[N+]=[N-])c1C1CCN(CC)C1=S (stereo not given),,> 100 µM (inactive),> 100 µM (inactive),> 100 µM (inactive),> 100 µM (inactive),> 100 µM (inactive),94 µM (inactive),> 100 µM (inactive),> 100 µM (inactive),> 100 µM (inactive),,> 100 µM (inactive),> 100 µM (inactive),> 100 µM (inactive),,> 100 µM (inactive),> 100 µM (inactive),> 100 µM (inactive),> 100 µM (inactive),> 100 µM (inactive)
CCOC(=O)c1c2c(n(Cc3ccccc3)c1C)C(=O)C(=O)c1ccccc1-2,0.0129 µM (active),0.238 µM (active),1.15 µM (inactive),0.122 µM (active),0.17 µM (active),0.778 µM (active),0.0615 µM (active),0.541 µM (active),0.119 µM (active),0.497 µM (active),0.24 µM (active),0.295 µM (active),0.61 µM (active),0.309 µM (active),,0.64 µM (active),0.284 µM (active),0.0612 µM (active),0.807 µM (active),1.26 µM (inactive)
COc1ccccc1/C=C1\SC(=S)N(/C=C2\C(=O)Oc3ccccc3C2=O)C1=O,,,36.6 µM (inactive),36.6 µM (inactive),33.9 µM (inactive),26.5 µM (inactive),19.8 µM (inactive),59.8 µM (inactive),,,29 µM (inactive),20.5 µM (inactive),23 µM (inactive),22 µM (inactive),,28.1 µM (inactive),23.8 µM (inactive),25.6 µM (inactive),38.5 µM (inactive),21.9 µM (inactive)
COC(=O)C1=C(O)C(C(=O)OC)[C@@]2(O)[C@@H](C(=O)OC)CC[C@@H]1[C@@H]2C(=O)OC (stereo not given in full),23.3 µM (inactive),23.8 µM (inactive),,25.4 µM (inactive),29.4 µM (inactive),10.6 µM (inactive),21.3 µM (inactive),28.2 µM (inactive),27.2 µM (inactive),,18.6 µM (inactive),,19.2 µM (inactive),17.9 µM (inactive),14.9 µM (inactive),23 µM (inactive),30 µM (inactive),18.2 µM (inactive),,16 µM (inactive)
O=S(=O)(c1ccccc1)c1nccs1,> 100 µM (inactive),> 100 µM (inactive),> 100 µM (inactive),> 100 µM (inactive),> 100 µM (inactive),> 100 µM (inactive),> 100 µM (inactive),> 100 µM (inactive),> 100 µM (inactive),> 100 µM (inactive),> 100 µM (inactive),> 100 µM (inactive),> 100 µM (inactive),> 100 µM (inactive),> 100 µM (inactive),> 100 µM (inactive),> 100 µM (inactive),,,> 100 µM (inactive)
O=c1c2nn[nH]c2nc2n1CC(c1ccccc1)S2 (stereo not given),> 100 µM (inactive),> 100 µM (inactive),> 100 µM (inactive),> 100 µM (inactive),> 100 µM (inactive),,> 100 µM (inactive),> 100 µM (inactive),> 100 µM (inactive),> 100 µM (inactive),> 100 µM (inactive),> 100 µM (inactive),> 100 µM (inactive),72.1 µM (inactive),,> 100 µM (inactive),> 100 µM (inactive),> 100 µM (inactive),,
Oc1ccc(Cl)cc1-c1cc(-c2ccccc2)nc(S)n1,> 100 µM (inactive),22.6 µM (inactive),> 100 µM (inactive),> 100 µM (inactive),> 100 µM (inactive),> 100 µM (inactive),> 100 µM (inactive),> 100 µM (inactive),> 100 µM (inactive),28.6 µM (inactive),42.6 µM (inactive),> 100 µM (inactive),29.5 µM (inactive),21.5 µM (inactive),,30.5 µM (inactive),,> 100 µM (inactive),> 100 µM (inactive),27.2 µM (inactive)
